pIC50: −log10 of the molar value.
Test system: KRAS PDC multicell spheroid viability
Assay: Anticancer human tumor 825966-067-R-J1-PDC patient-derived colon carcinoma cell line growth inhibition [KRAS2]
Conditions: for pIC50: curve of first compound; for viability, T/C: stronger effect = lower value
How it was run: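 KRAS-mutant tumor cells were grown as spheroids with HUVEC endothelial cells and human MSCs as stroma. Targeted agents were tested alone and with KRAS pathway inhibitors. Doses started at or near clinical Cmax, or 10 microM, descending half-log.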

[1] = second compound 0.1 µM, first compound 0.01 µM
[2] = second compound 0.1 µM, first compound 0.0316 µM
[3] = second compound 0.1 µM, first compound 0.1 µM
[4] = second compound 0.1 µM, first compound 0.316 µM
[5] = second compound 0.1 µM, first compound 1 µM
[6] = second compound 0.1 µM, first compound 3.16 µM
[7] = second compound 0.316 µM, first compound 0.01 µM
[8] = second compound 0.316 µM, first compound 0.0316 µM
[9] = second compound 0.316 µM, first compound 0.1 µM
[10] = second compound 0.316 µM, first compound 0.316 µM
[11] = second compound 0.316 µM, first compound 1 µM
[12] = second compound 0.316 µM, first compound 3.16 µM
[13] = second compound 1 µM, first compound 0.01 µM
[14] = second compound 1 µM, first compound 0.0316 µM
[15] = second compound 1 µM, first compound 0.1 µM
[16] = second compound 1 µM, first compound 0.316 µM
[17] = second compound 1 µM, first compound 1 µM
[18] = second compound 1 µM, first compound 3.16 µM
[19] = second compound 3.16 µM, first compound 0.01 µM
[20] = second compound 3.16 µM, first compound 0.0316 µM
[21] = second compound 3.16 µM, first compound 0.1 µM
[22] = second compound 3.16 µM, first compound 0.316 µM
[23] = second compound 3.16 µM, first compound 1 µM
[24] = second compound 3.16 µM, first compound 3.16 µM
[25] = second compound 10 µM, first compound 0.01 µM
[26] = second compound 10 µM, first compound 0.0316 µM
[27] = second compound 10 µM, first compound 0.1 µM
[28] = second compound 10 µM, first compound 0.316 µM
[29] = second compound 10 µM, first compound 1 µM
[30] = second compound 10 µM, first compound 3.16 µM
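Also: spheroids exposed to compounds for 7 days.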
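For viability, T/C in this document: 100% = DMSO vehicle control viability.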

Structure (SMILES) | pIC50 (second compound 0.1 µM) | pIC50 (second compound 0.316 µM) | pIC50 (second compound 1 µM) | pIC50 (second compound 3.16 µM) | viability, T/C [2] [%] | viability, T/C [3] [%] | viability, T/C [4] [%] | viability, T/C [5] [%] | viability, T/C [6] [%] | viability, T/C [8] [%] | viability, T/C [9] [%] | viability, T/C [10] [%] | viability, T/C [11] [%] | viability, T/C [12] [%] | viability, T/C [14] [%] | viability, T/C [15] [%] | viability, T/C [16] [%] | viability, T/C [17] [%] | viability, T/C [18] [%] | viability, T/C [20] [%] | also measured
CC(=O)OC12COC1CC(O)C1(C)C(=O)C(O)C3=C(C)C(OC(=O)C(O)C(NC(=O)OC(C)(C)C)c4ccccc4)CC(O)(C(OC(=O)c4ccccc4)C21)C3(C)C (configuration not stated) + CC1OCC2(CCN(c3cnc(Sc4ccnc(N)c4Cl)c(N)n3)CC2)C1N | > 8.00 | > 8.00 | > 8.00 | > 8.00 | 15.2 | 18.4 | 17.1 | 17.3 | 22 | 12 | 13.3 | 12 | 15.8 | 15.9 | 18 | 18.9 | 12.3 | 13 | 21.6 | 10.2 | pIC50 (second compound 10 µM): > 8.00; viability, T/C [1]: 17.9%; viability, T/C [7]: 13.1%; viability, T/C [13]: 17.5%; viability, T/C [19]: 10.3%; viability, T/C [21]: 10.7%; viability, T/C [22]: 6.99%; viability, T/C [23]: 7.72%; viability, T/C [24]: 11.7%; viability, T/C [25]: 7.08%; viability, T/C [26]: 7.25%; viability, T/C [27]: 10%; viability, T/C [28]: 6.28%; viability, T/C [29]: 4.82%; viability, T/C [30]: 10.1%
CC1COCCN1c1cc(-c2ccnn2C)c2ccnc(-c3ccn[nH]3)c2n1 (configuration not stated) + C=CC(=O)N1CCN(c2nc(=O)n(-c3c(C)ccnc3C(C)C)c3nc(-c4c(O)cccc4F)c(F)cc23)C(C)C1 | 6.51 | < 5.50 | 6.58 | 5.50 | 135 | 123 | 41.5 | 56.2 | 47.4 | 142 | 72.9 | 60.3 | 44.9 | 60.4 | 125 | 71 | 41.5 | 51.1 | 41.4 | 146 | pIC50 (second compound 10 µM): < 5.50; viability, T/C [1]: 110%; viability, T/C [7]: 137%; viability, T/C [13]: 137%; viability, T/C [19]: 106%; viability, T/C [21]: 70.4%; viability, T/C [22]: 70.8%; viability, T/C [23]: 51.2%; viability, T/C [24]: 43%; viability, T/C [25]: 137%; viability, T/C [26]: 108%; viability, T/C [27]: 64.6%; viability, T/C [28]: 75.8%; viability, T/C [29]: 59.1%; viability, T/C [30]: 47.2%
CC1COCCN1c1cc(-c2ccnn2C)c2ccnc(-c3ccn[nH]3)c2n1 (configuration not stated) | – | – | – | – | – | – | – | – | – | – | – | – | – | – | – | – | – | – | – | – | viability, T/C (compound 0.01 µM): 110% [middle of 5 runs]; viability, T/C (compound 3.16 µM): 60% [middle of 5 runs]
CC(=O)OC12COC1CC(O)C1(C)C(=O)C(O)C3=C(C)C(OC(=O)C(O)C(NC(=O)OC(C)(C)C)c4ccccc4)CC(O)(C(OC(=O)c4ccccc4)C21)C3(C)C (configuration not stated) + C=CC(=O)N1CCN(c2nc(OCC3CCCN3C)nc3c2CCN(c2cccc4cccc(C)c24)C3)CC1CC#N | > 8.00 | > 8.00 | > 8.00 | > 8.00 | 29.6 | 32.1 | 22 | 28.6 | 35.9 | 21.2 | 25.4 | 24.5 | 26.2 | 27.3 | 25 | 30 | 20 | 27 | 26.1 | 23.2 | pIC50 (second compound 0.0316 µM): > 8.00; viability, T/C (second compound 0.0316 µM, first compound 0.01 µM): 24.8%; viability, T/C (second compound 0.0316 µM, first compound 0.0316 µM): 28%; viability, T/C (second compound 0.0316 µM, first compound 0.1 µM): 23.1%; viability, T/C (second compound 0.0316 µM, first compound 0.316 µM): 23.1%; viability, T/C (second compound 0.0316 µM, first compound 1 µM): 24.5%; viability, T/C (second compound 0.0316 µM, first compound 3.16 µM): 40.3%; viability, T/C [1]: 27%; viability, T/C [7]: 23%; viability, T/C [13]: 28.6%; viability, T/C [19]: 31.7%; viability, T/C [21]: 21.2%; viability, T/C [22]: 23.8%; viability, T/C [23]: 17.2%; viability, T/C [24]: 29.6%
CCNC(=O)CC1N=C(c2ccc(Cl)cc2)c2cc(OC)ccc2-n2c(C)nnc21 (configuration not stated) + C=CC(=O)N1CCN(c2nc(=O)n(-c3c(C)ccnc3C(C)C)c3nc(-c4c(O)cccc4F)c(F)cc23)C(C)C1 | < 5.00 | < 5.00 | < 5.00 | < 5.00 | 81 | 80.9 | 108 | 111 | 99.5 | 79.6 | 76.6 | 68 | 104 | 85.6 | 80.9 | 91.5 | 102 | 83.3 | 83.9 | 74.8 | pIC50 (second compound 10 µM): 5.89; viability, T/C (second compound 0.1 µM, first compound 10 µM): 81.8%; viability, T/C (second compound 0.316 µM, first compound 10 µM): 85.2%; viability, T/C (second compound 1 µM, first compound 10 µM): 63.6%; viability, T/C [21]: 82.3%; viability, T/C [22]: 98.3%; viability, T/C [23]: 91.8%; viability, T/C [24]: 50.1%; viability, T/C (second compound 3.16 µM, first compound 10 µM): 61.5%; viability, T/C [26]: 104%; viability, T/C [27]: 72.5%; viability, T/C [28]: 95.4%; viability, T/C [29]: 54.3%; viability, T/C [30]: 32.4%; viability, T/C (second compound 10 µM, first compound 10 µM): 36.9%
